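Where inhibition never reached the appropriate level, the endpoint shown equals the highest concentration tested. Otherwise, values were interpolated linearly from a five-concentration, 48-hour dose response in 96-well plates. The concentration for 50% growth inhibition is given as GI50. The concentration for full growth arrest is given as TGI.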
Assays:
Test in all cases: NCI-60 cell line screen, 48 h
A498 renal = tested on: A498 renal
ACHN renal = tested on: ACHN renal
COLO 205 colon = tested on: COLO 205 colon
HT29 colon = tested on: HT29 colon
LOX IMVI melanoma = tested on: LOX IMVI melanoma
MALME-3M melanoma = tested on: MALME-3M melanoma
SK-OV-3 ovarian = tested on: SK-OV-3 ovarian
SN12C renal = tested on: SN12C renal
SW-620 colon = tested on: SW-620 colon
UACC-62 melanoma = tested on: UACC-62 melanoma

Structure (SMILES)	GI50 (A498 renal)	TGI (A498 renal)	GI50 (ACHN renal)	TGI (ACHN renal)	GI50 (COLO 205 colon)	TGI (COLO 205 colon)	GI50 (HT29 colon)	TGI (HT29 colon)	GI50 (LOX IMVI melanoma)	TGI (LOX IMVI melanoma)	GI50 (MALME-3M melanoma)	TGI (MALME-3M melanoma)	GI50 (SK-OV-3 ovarian)	TGI (SK-OV-3 ovarian)	GI50 (SN12C renal)	TGI (SN12C renal)	GI50 (SW-620 colon)	TGI (SW-620 colon)	GI50 (UACC-62 melanoma)	TGI (UACC-62 melanoma)
O=C1NC(O)C(c2c[nH]c3ccccc23)=C1c1c[nH]c2ccccc12 (stereo not given)	> 25000 nM	> 25 µM	> 25 µM	> 25 µM	> 25000 nM	> 25 µM	> 25000 nM	> 25 µM	> 22500 nM	> 25 µM	> 25 µM	> 25 µM	> 25 µM	> 25 µM	> 25000 nM	> 25 µM	> 25000 nM	> 25 µM	8010 nM	> 25 µM
CCC/C(=N/NC(=O)C(N)=O)C(CC)C(=O)CCC(=O)N(Cc1ccccc1)Cc1ccccc1 (stereo not given)		> 100 µM		> 100 µM		> 100 µM		> 100 µM		> 100 µM		> 100 µM		> 100 µM		> 100 µM		> 100 µM		> 100 µM
O=c1cc2ccccc2nn1Cc1cccc(Cl)c1		> 100 µM		> 100 µM		> 100 µM		> 100 µM		> 100 µM		> 100 µM		> 100 µM		> 100 µM		> 100 µM		> 100 µM
CC1(CO)OC(n2cc(C(=O)NC(=O)OCc3ccccc3)c(=O)[nH]c2=O)CC1O (stereo not given)		> 100 µM		> 100 µM		> 100 µM		> 100 µM		> 100 µM		> 100 µM		> 100 µM		> 100 µM		> 100 µM		> 100 µM
Cc1cc2nc3c4cc(N)ccc4n(CCN(C)C)c3nc2cc1C	763 nM	2.32 µM	0.351 µM	9.7 µM	408 nM	5.27 µM	478 nM	6.59 µM	461 nM	3.27 µM	1.27 µM	3.08 µM	1.92 µM	16.4 µM	484 nM	11.7 µM	381 nM	10.9 µM	824 nM	2.75 µM
COc1cc(-c2nn(-c3cccc(NC(=O)Nc4cc(C(F)(F)F)cc(C(F)(F)F)c4)c3)cc2-c2ccncc2)ccc1Cl	587 nM	2.13 µM	0.309 µM	16.9 µM	817 nM	1.6 µM	619 nM	1.68 µM	783 nM	1.52 µM	0.677 µM	2 µM	1.16 µM	2.87 µM	471 nM	1.96 µM	494 nM	2.94 µM	496 nM	1.5 µM
NC(N)=N/N=C\c1cccc(OCc2ccccc2)c1	11400 nM	23.5 µM	4.29 µM	18.5 µM	1780 nM	3.36 µM	1830 nM	4.01 µM	1780 nM	3.4 µM	3.35 µM	13.5 µM	10.5 µM	22.3 µM	4330 nM	17.6 µM	1680 nM	3.33 µM	1670 nM	3.45 µM
Cc1ccccc1C(=O)c1ccccc1O		> 100 µM		> 100 µM		> 100 µM		> 100 µM		> 100 µM		> 100 µM		> 100 µM		> 100 µM		> 100 µM		> 100 µM
CC(C)[C@H](CO)Nc1nc(Nc2ccc(C(=O)NCCNS(=O)(=O)c3cccc4c(N(C)C)cccc34)c(Cl)c2)c2ncn(C(C)C)c2n1	1830 nM	6.1 µM	5.74 µM	> 100 µM	1760 nM	3.47 µM	2500 nM	> 41.8 µM	2710 nM	> 100 µM	> 25.5 µM	> 100 µM	> 100 µM	> 100 µM	2810 nM	> 100 µM	2560 nM	> 100 µM	3400 nM	> 100 µM
COC(=O)N1CCc2c(nc(N(C)CCO)[nH]c2=O)C1		> 100 µM		> 100 µM		> 100 µM		> 100 µM		> 100 µM		> 100 µM		> 100 µM		> 100 µM		> 100 µM		> 100 µM
CCCc1cc2c(=O)c(C(=O)OC)c[nH]c2cc1N(CC)CC	82300 nM	> 100 µM	17.6 µM	60.9 µM	46500 nM	> 100 µM	72100 nM	> 100 µM	25800 nM	77.9 µM	64.8 µM	> 100 µM	36.5 µM	> 100 µM	41200 nM	> 100 µM	45600 nM	> 100 µM	> 100000 nM	> 100 µM
COC(=O)/C([Se]c1c(C)cc(C)cc1C)=C(\[Se]c1c(C)cc(C)cc1C)C(=O)OC		> 100 µM		> 100 µM		> 100 µM		> 100 µM		> 100 µM		> 100 µM		> 100 µM		> 100 µM		> 100 µM		> 100 µM

From PubChem BioAssay (NCI)
